Assay results taken from ChEMBL document CHEMBL1201862, “PubChem BioAssay data set” (2004).
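Protocol summary: plate cells (96-well), add compound at 5 concentrations, incubate 48 h, interpolate endpoints linearly. At the GI50, growth is halved.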 Activity calls are given as the source filed them. Cut-off read from the data, not from the text of the source: active = GI50 up to about 1.1 µM and inactive = higher.

How the values were obtained:
Assay in all cases: NCI anticancer screen, dose series, 48 h
A549 = system: A549
ACHN = system: ACHN
DU-145 = system: DU-145
EKVX = system: EKVX
HCC 2998 = system: HCC 2998
HOP-92 = system: HOP-92
Hs-578T = system: Hs-578T
KM12 = system: KM12
MDA-MB-231 = system: MDA-MB-231
MDA-N = system: MDA-N
NCI-H23 = system: NCI-H23
NCI-H460 = system: NCI-H460
OVCAR-3 = system: OVCAR-3
OVCAR-4 = system: OVCAR-4
SF-539 = system: SF-539
SK-MEL-5 = system: SK-MEL-5
SN12C = system: SN12C
TK-10 = system: TK-10
U-251 = system: U-251
RPMI-8226 = system: RPMI-8226

SMILES | GI50 (A549) | GI50 (ACHN) | GI50 (DU-145) | GI50 (EKVX) | GI50 (HCC 2998) | GI50 (HOP-92) | GI50 (Hs-578T) | GI50 (KM12) | GI50 (MDA-MB-231) | GI50 (MDA-N) | GI50 (NCI-H23) | GI50 (NCI-H460) | GI50 (OVCAR-3) | GI50 (OVCAR-4) | GI50 (SF-539) | GI50 (SK-MEL-5) | GI50 (SN12C) | GI50 (TK-10) | GI50 (U-251) | GI50 (RPMI-8226)
COC(=O)c1c(C)cccc1CC1Cc2c(C)cccc2C1=O (stereo not drawn) | 28.4 µM (inactive) | 35.7 µM (inactive) | 60.1 µM (inactive) | 33.7 µM (inactive) | 27.9 µM (inactive) | 24.4 µM (inactive) | 35.3 µM (inactive) | 20.1 µM (inactive) | 32.4 µM (inactive) | 30.3 µM (inactive) | 25.8 µM (inactive) | 35 µM (inactive) | 24.1 µM (inactive) | 32.8 µM (inactive) | 40.8 µM (inactive) | 20.7 µM (inactive) | 43.4 µM (inactive) | 35.2 µM (inactive) | 40 µM (inactive) | 
Cc1ccc(-n2cc(-c3ccc(Cl)cc3)c3c2N=CN2N=C(c4ccco4)NC32)cc1 (stereo not drawn) | 15 µM (inactive) | 4.24 µM (inactive) | > 100 µM (inactive) | 17.7 µM (inactive) | > 100 µM (inactive) | 2.09 µM (inactive) | 2.05 µM (inactive) |  | 5 µM (inactive) | 19.5 µM (inactive) | 19.7 µM (inactive) | 4.49 µM (inactive) | 6.49 µM (inactive) | 1.93 µM (inactive) | 15.2 µM (inactive) | > 100 µM (inactive) | 3.62 µM (inactive) | 7.5 µM (inactive) | 5.46 µM (inactive) | 
C/C1=C\[C@H](C)C[C@H](C)OC(=O)C[C@H](c2ccc(O)cc2)NC(=O)[C@H](Cc2ccc(O)c(I)c2)N(C)C(=O)[C@H](C)NC(=O)[C@@H](C)C1 | 0.0102 µM (active) | 0.00832 µM (active) | 0.0183 µM (active) | 0.0596 µM (active) |  | 0.0365 µM (active) | 0.0564 µM (active) | 0.208 µM (active) | 0.0333 µM (active) | 0.0412 µM (active) | 2.79 µM (inactive) |  | 0.0203 µM (active) | 0.00653 µM (active) |  | 0.0169 µM (active) | 0.239 µM (active) | 0.0586 µM (active) | 0.00944 µM (active) | 0.0108 µM (active)
CC(=O)Oc1ccccc1-c1cc2ccccc2oc1=O | > 100 µM (inactive) | > 100 µM (inactive) | > 100 µM (inactive) | 63.5 µM (inactive) | > 100 µM (inactive) |  | > 100 µM (inactive) | > 100 µM (inactive) | > 100 µM (inactive) | > 100 µM (inactive) | 83.8 µM (inactive) | > 100 µM (inactive) | 22.4 µM (inactive) |  | > 100 µM (inactive) |  | > 100 µM (inactive) |  |  | > 100 µM (inactive)
NCC1OC(n2cnc3c(=O)[nH]c(N)nc32)C(O)C1O (stereo not drawn) | > 100 µM (inactive) | > 100 µM (inactive) | > 100 µM (inactive) | > 100 µM (inactive) |  | > 100 µM (inactive) | > 100 µM (inactive) | > 100 µM (inactive) | > 100 µM (inactive) | > 100 µM (inactive) | > 100 µM (inactive) | > 100 µM (inactive) | > 53.3 µM (inactive) | > 100 µM (inactive) | > 100 µM (inactive) | > 100 µM (inactive) | > 100 µM (inactive) | > 59.7 µM (inactive) | > 100 µM (inactive) | 2.13 µM (inactive)
O=C1c2cc3ccccc3cc2C2(c3ccc(Cl)cc3)N[C@H]3CCCC[C@@H]3N12 (stereo partly drawn) | 9.62 µM (inactive) | 15.2 µM (inactive) | 17.9 µM (inactive) | 10.9 µM (inactive) |  | 27.8 µM (inactive) | 11.7 µM (inactive) | 16.9 µM (inactive) | 13.3 µM (inactive) | 18.1 µM (inactive) | 14.6 µM (inactive) | 14.9 µM (inactive) | 19.4 µM (inactive) | 6.34 µM (inactive) | 10.1 µM (inactive) | 16.7 µM (inactive) | 16.6 µM (inactive) | 11.7 µM (inactive) | 14.2 µM (inactive) | 18.4 µM (inactive)
COc1ccc(NC=O)c(C(=O)CCNC(C)=O)c1 | > 100 µM (inactive) | > 100 µM (inactive) | > 100 µM (inactive) | > 100 µM (inactive) |  | > 100 µM (inactive) | > 100 µM (inactive) | > 100 µM (inactive) | > 100 µM (inactive) | > 100 µM (inactive) | > 100 µM (inactive) | > 100 µM (inactive) | > 100 µM (inactive) | > 100 µM (inactive) | > 100 µM (inactive) | > 100 µM (inactive) | > 100 µM (inactive) | > 100 µM (inactive) | > 100 µM (inactive) | > 100 µM (inactive)
